Experimental data taken from ChEMBL document CHEMBL1201862, “PubChem BioAssay data set” (2004).
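Dose response: 5 concentrations. Exposure: 48 h. Format: 96-well plates. Endpoint: linear interpolation; highest concentration if not reached. GI50 = concentration required for 50% inhibition of growth.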 Active and inactive are the calls of the source. Cut-off read from the data, not from the text of the source: active = GI50 up to about 1.1 µM and inactive = higher.

Key:
Test in all cases: NCI tumour cell line growth inhibition, 48 h
A498 = test system: A498
COLO 205 = test system: COLO 205
HCC 2998 = test system: HCC 2998
HT-29 = test system: HT-29
KM-20L2 = test system: KM-20L2
KM12 = test system: KM12
LOX IMVI = test system: LOX IMVI
MDA-MB-435 = test system: MDA-MB-435
MDA-N = test system: MDA-N
Malme-3M = test system: Malme-3M
NCI-H23 = test system: NCI-H23
OVCAR-8 = test system: OVCAR-8
RXF 393 = test system: RXF 393
SF-268 = test system: SF-268
SF-295 = test system: SF-295
SF-539 = test system: SF-539
SK-MEL-2 = test system: SK-MEL-2
SK-MEL-5 = test system: SK-MEL-5
SK-OV-3 = test system: SK-OV-3
TK-10 = test system: TK-10

Measured: GI50

CC1CN1C(=O)NCCCCCCNC(=O)N1CC1C (stereo not given)
inactive: A498 > 100 µM | COLO 205 > 100 µM | HCC 2998 > 100 µM | HT-29 > 100 µM | KM-20L2 > 100 µM | KM12 > 100 µM | LOX IMVI 34.3 µM | MDA-MB-435 > 100 µM | MDA-N > 100 µM | Malme-3M > 100 µM | NCI-H23 27.3 µM | OVCAR-8 69 µM | RXF 393 > 100 µM | SF-268 29.8 µM | SF-295 54.3 µM | SF-539 35 µM | SK-MEL-2 > 100 µM | SK-MEL-5 > 100 µM | SK-OV-3 66.5 µM | TK-10 > 100 µM
